Measurements as given in US20130280270A1, “METHODS OF TREATING LUNG DISEASE AND OTHER INFLAMMATORY DISEASES” (Duke University, priority 2009, published 2013).
Where two headings read alike, the source gives them in different places.

Experiments:
[1] = test system: ozone-induced AHR; experiment: Ozone-induced AHR mouse model (asthma precipitated by air pollution); format: in vivo
Text: (§1) We have carried out experiments with GRP blockade given as an intraperitoneal (IP) injection to prevent and/or treat AHR in several different mouse models of airways hyperreactivity (AHR) and/or inflammation: ozone-induced AHR as a model for asthma precipitated by air pollution, ovalbumin (OVA)-induced AHR as a model of allergic airways inflammation, and endotoxin (lipopolysaccharide, LPS)-induced AHR as a first step towards assessing infectious causes of asthma. These experiments used the small molecule GRP inhibitor, 77427, or a monoclonal anti-GRP blocking antibody, 2A 11. […] In the near future, we hope to test GRP blockade in additional mouse models of asthma, including: Mycoplasma infection, respiratory syncytial virus (RSV) infection, Aspergillus infection, and house dust mite exposure.
(§2) In contrast, mice were treated with dexamethasone (Dex), the standard of care for asthma, before ozone exposure.

[2] = target: T1, GRP (Homo sapiens, UniProt P07492); conditions: cited from earlier work
T1 sequence (P07492 24-50 limits assumed): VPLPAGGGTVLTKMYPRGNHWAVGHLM

[3] = test system: endothelial cell tube formation; conditions: Matrigel support matrix; cited from earlier work
[4] = F. Cuttitta, unpublished data; cited from earlier work
[5] = target: T1, GRP; conditions: prevention of antibody-ligand interaction; blocking GRP-induced IP3 production and Ca2+ flux; cited from earlier work
[6] = test system: GRP-induced angiogenesis; conditions: in vitro and in vivo; cited from earlier work
[7] = test system: ovalbumin (OVA)-induced AHR; experiment: Ovalbumin (OVA)-induced AHR mouse model (allergic airways inflammation); format: in vivo
Text: as §1, §2

[8] = test system: cytokines; experiment: Cytokine levels in ozone and ovalbumin in vivo mouse models of asthma
Text: We have carried out experiments with GRP blockade given as an intraperitoneal (IP) injection to prevent and/or treat AHR in several different mouse models of airways hyperreactivity (AHR) and/or inflammation: ozone-induced AHR as a model for asthma precipitated by air pollution, ovalbumin (OVA)-induced AHR as a model of allergic airways inflammation, and endotoxin (lipopolysaccharide, LPS)-induced AHR as a first step towards assessing infectious causes of asthma. […] The invention would extend to any compound able to block GRP signaling by either binding to GRP itself or to the GRP receptor, which are part of the same signal transduction cascade. In the near future, we hope to test GRP blockade in additional mouse models of asthma, including: Mycoplasma infection, respiratory syncytial virus (RSV) infection, Aspergillus infection, and house dust mite exposure.

[9] = test system: chronic radiation pneumonitis; experiment: Chronic radiation pneumonitis in mice after 15 Gy thoracic radiation; format: in vivo; conditions: 500 nM 77427 twice a week IP following 15 Gy thoracic radiation
Method: We can also block chronic radiation pneumonitis in mice given 500 nM 77427 twice a week IP following 15 Gy thoracic radiation.

[10] = test system: neovascularization; conditions: on a molar basis (≈500 nM), compared with MoAb-2A11; cited from earlier work
[11] = test system: GRP receptor; conditions: lung slices from one non-human primate, 2 slices MCh + antagonist; morphological assessment; cited from earlier work

C[C@@H]1C[C@H]2[C@@H]3CCC4=CC(=O)C=C[C@]4(C)[C@@]3(F)[C@@H](O)C[C@]2(C)[C@@]1(O)C(=O)CO [Dex, dexamethasone]
number of cytokines with significantly increased levels ([1]; treatment before ozone, IL-6, IL-12 (p40), TNFα): 3

Nc1nc(Cl)cc(NCCO)n1 [compound 77427]
blocks % of GRP ([2]; 5 nM 77427): 50%
blocks % of GRP ([2]; 50 nM 77427): 70%
blocks % of GRP ([2]; 500 nM 77427): 95%
blocking of GRP mediated endothelial cell tube formation [3]: effective blocker
airway hyperreactivity (AHR) ([1]; ozone model): abrogates
airways inflammation ([1]; ozone model): abrogates
half-life [4]: ~10 days
mimetic to MoAb-2A11 / antagonist to GRP in screen [5]: ideal mimetic to MoAb-2A11
inhibition of GRP-induced angiogenesis [6]: potent inhibitor
airway hyperreactivity (AHR) [7]: abrogates
airways inflammation [7]: abrogates
Interleukin-2 (IL-2) ([8]; FIG. 2A): suppression
TNF-alpha ([8]; FIG. 2C): suppression
GM-CSF ([8]; FIG. 2D): suppression
IL-4 ([8]; FIG. 2E): suppression
IL-5 ([8]; FIG. 2F): suppression
IL-13 ([8]; FIG. 2G): suppression
IL-6 ([8]; FIG. 2H): suppression
IL-17 ([8]; FIG. 2I): suppression
MCP-1 ([8]; FIG. 2J): suppression
KC ([8]; FIG. 2K): suppression
VEGF ([8]; FIG. 2L): suppression
cytokines tested whose increased levels are significantly suppressed (P<0.0001) or abrogated ([8]; ozone and ovalbumin models, cytokines represent at least 5 inflammatory cell types): 21 of 21
chronic radiation pneumonitis [9]: block
suppressive response in stopping neovascularization [10]: equivalent suppressive response as MoAb-2A11

[Leu^13-(ψ-CH2NH)-Leu^14]-bombesin
MCh-induced reduction of internal airway diameter (bronchoconstriction) of bronchi [11]: slightly reduced
